The values that follow come from US20210371491A1, “CHIMERIC ANTIGEN RECEPTORS THAT BIND TO PROSTATE SPECIFIC MEMBRANE ANTIGEN” (Albert-Ludwigs-Universitaet Freiburg, priority 2018, published 2021).

The structures appear in SMILES notation. “And” between values parts separate entries of the source, which are not always exact repeats. Identical values can stand only once.

The subject of this assay is C4-2^luc+ tumor xenografts. Description: Treatment of C4-2^luc+ tumor xenografts by docetaxel chemotherapy plus intravenous CAR T cells (Example 12). It counts as in vivo, mice. How it is done:
(A) Schematic of combined chemotherapy with intravenous CAR T cell therapy. Tumor engraftment was established in animals by subcutaneous injection of 1.5×10^6 cells. Chemotherapy had started at day 1 of the treatment for 3 days by intraperitoneal injection of docetaxel (DOC, 6 mg/kg bw). 48 hours after the last chemotherapy cycle, mice were injected intravenously with single doses of 5×10^6 CAR28 (n=3) or CAR41 T cells (n=3). Control mice were injected with docetaxel alone (n=3) or left untreated (control, n=4). Tumors were visualized via BLI until the end of treatment at day 17. D, day; i.v, intravenous injection; i.p, intraperitoneal; s.c, subcutaneous.
(B) Antitumor activity of CAR28 and CAR41 T cells in combination with docetaxel chemotherapy. Mice with subcutaneously growing C4-2^luc+ tumors (200-250 mm^3) were intraperitoneally injected with docetaxel (DOC; 6 mg/kg bw) on days 1, 2, and 3 of treatment. 48 hours later mice were additionally injected with a single dose of 5×10^6 CAR28 (n=3) or CAR41 T cells (n=3) intravenously. Tumor growth was monitored by BLI. […] Statistical significant differences are indicated by *p<0.05.
Mice with large C4-2^luc+ tumor xenografts (200-250 mm^3) were intraperitoneally injected with 3 daily cycles of docetaxel (DOC, 6 mg/kg bw on days 1, 2, and 3 of treatment) (FIG. 9A). 48 hours after the last cycle, mice were intravenously injected with only one dose of 5×10^6 CAR28 (n=3) CAR41 T cells (n=3), or PBS (n=3) respectively (FIG. 9A). Control animals (n=4) remained completely untreated. Tumor growth was monitored by BLI as described above. […] Compared to the control group (1817.5±165.5 mm^3) tumor end volumes of 338.2±355.6 mm^3 for mice treated with DOC alone and of 599.9±317.2 mm^3 for mice treated with DOC+CAR28 were reached on day 17 (FIG. 9C). […] A mean tumor volume of 50.2±71.0 mm^3 was determined (FIG. 9C).

As for `CC(=O)O[C@@]12CO[C@@H]1C[C@H](O)[C@@]1(C)C(=O)[C@H](O)C3=C(C)[C@@H](OC(=O)[C@H](O)[C@@H](NC(=O)OC(C)(C)C)c4ccccc4)C[C@@](O)([C@@H](OC(=O)c4ccccc4)[C@H]21)C3(C)C` [DOC, docetaxel], the “tumor growth compared to control group (in words)” value (DOC 6 mg/kg bw days 1-3 ± CAR T cells i.v.) is listed as “inhibition of tumor growth”. Besides, the “partial remission (PR), mice” value (DOC 6 mg/kg bw i.p. days 1-3, CAR T cells 5×10^6 i.v. 48 h later, tumors 200-250 mm^3) was “⅔”. Also, the mean tumor volume (day 17, DOC 6 mg/kg bw days 1-3 ± CAR T cells i.v.) is 338.2±355.6 mm^3 and 338.3±355.6 mm^3.
